According to PubChem BioAssay (NCI):
Where “and” joins values, the source holds several entries; their conditions need not be identical. Equal values may be shown once.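 All cell lines were grown in 96-well plates and treated with compound for 48 hours. GI50 = concentration required for 50% inhibition of growth. Definition used: TGI = concentration required for complete inhibition of growth.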

Assays:
Experiment in all cases: NCI anticancer screen, dose series, 48 h
[1] = system: A549 NSCLC
[2] = system: CCRF-CEM leukemia
[3] = system: SF-539 CNS
[4] = system: SR leukemia
[5] = system: M19-MEL melanoma
[6] = system: RXF 393 renal
[7] = system: OVCAR-3 ovarian
[8] = system: KM20L2 colon
[9] = system: DMS 114 small cell lung
[10] = system: HOP-18 NSCLC

Row | Structure (SMILES) | TGI [1] [µM] | TGI [2] [µM] | TGI [3] | TGI [4] | TGI [5] [µM] | TGI [6] | TGI [7] | TGI [8] [µM] | TGI [9] [µM] | GI50 [1] | GI50 [2] | GI50 [3] | GI50 [4] | GI50 [6] | GI50 [7] | TGI [10] [µM]
1 | COC1=CC(=O)[C@]2(C)[C@H](C1=O)C(C)[C@H]2c1ccccc1 (some centres undefined) | > 100 | > 100 | > 100 µM | > 100 µM | > 100 | > 100 µM | > 100 µM | – | – | – | – | – | – | – | – | –
2 | CCOc1ccccc1NC(=O)C1=C(C)NC(C)=C(C(=O)Nc2ccccc2OCC)C1c1ccc(NC(C)=O)cc1 | > 100 | > 100 | > 100 µM | – | > 100 | > 100 µM | > 100 µM | 98.9 | > 100 | – | – | – | – | – | – | –
3 | Cc1ccc(S(=O)(=O)Nc2nc3ccccc3nc2Nc2ccc3nsnc3c2)cc1 | > 100 | > 100 | 61.3 µM and > 100 µM | 95.4 µM and > 100 µM | – | 35.1 µM and > 100 µM | 14.8 µM and > 100 µM | – | – | 3.68 µM and 3.5 µM | 3.32 µM and 2.93 µM | 4.9 µM and 5.13 µM | 7.87 µM and 4.49 µM | 6.92 µM and 7.73 µM | 3.23 µM and 3.65 µM | –
4 | CC1(C)C2C/C(=C\c3ccccc3)C(=O)C1C2 (centres undefined) | > 100 | > 100 | > 100 µM | – | > 100 | > 100 µM | > 100 µM | – | > 100 | – | – | – | – | – | – | –
5 | CN1CCn2c(c(Sc3ccc(C(=O)NO)cc3)c3ccccc32)C1=O | 13 | > 27.8 | 3.48 µM | > 100 µM | – | 3.17 µM | 4.33 µM | – | – | 3.45 µM | 1.23 µM | 1.56 µM | 2.65 µM | 1.62 µM | 1.87 µM | –
6 | Clc1ccc2c(c1)-c1ccccc1C1=NCCN12 | 3.77 | 4.08 | 10.4 µM | 4.13 µM | – | 2.98 µM | 6.16 µM | – | – | 1.53 µM | 1.7 µM | 3 µM | 1.55 µM | 1.51 µM | 2.3 µM | –
7 | NC(CCSC(F)F)C(=O)O (centres undefined) | > 100 | > 100 | > 100 µM | > 100 µM | > 100 | > 100 µM | > 100 µM | > 100 | > 100 | – | – | – | – | – | – | –
8 | N#Cc1nc2cc(F)c(F)cc2nc1-c1ccc(Cl)cc1 | > 100 | 3.12 | > 100 µM | 4.35 µM | – | 18.3 µM | 8.28 µM | – | – | 39.3 µM | 0.181 µM | > 60.6 µM | 1.7 µM | 6.23 µM | 2.24 µM | –
9 | Oc1ccc(N=Nc2ccc(N=Nc3ccccc3)cc2)cc1 | 12 | 14 | 3.03 µM | 14 µM | – | 61.4 µM | 4.77 µM | – | – | 2.14 µM | 0.379 µM | 0.712 µM | 1.79 µM | 14.3 µM | 1.71 µM | –
10 | Cc1ccc(/C=C2\CCCC\C2=N\O)cc1 | > 100 | > 100 | > 100 µM | – | > 100 | – | > 100 µM | > 100 | – | – | – | – | – | – | – | > 100
11 | Clc1nc(Cl)c(Cc2ccccc2)c(Cl)n1 | 27.5 | > 100 | 20 µM | > 100 µM | – | 11.1 µM | 9.16 µM | – | – | – | – | – | – | – | – | –
